| SMILES | melting point |
| --- | --- |
| O=c1c2ccc(Cl)cc2[nH]c2c(O)nn(C3CCCc4sccc43)c(=O)c12 (racemic) | > 300 °C |
| CCC(=O)COc1ccc(CC2SC(=O)NC2=O)cc1 (stereo not given) | 142 to 146 °C |
| CC(C)(C)c1cc(CC2CCCCC2=O)cc(C(C)(C)C)c1O (stereo not given) | 79 °C |
| CC(C)(C)OC(=O)N1CCC(COc2ccc(N)cc2)CC1 | 100 to 101 °C |
| CCOc1ccc2[nH]c(SCc3cccn4ccnc34)nc2c1 | 157 to 160 °C |
| CCOC1=CC2=CCC3C(CCC4(CC)C(=O)CC(OC(C)=O)C34)C2CC1 (stereo not given) | 189 °C |
| COc1cccc(-c2cc(N)c3cc(OC)ccc3n2)c1 | 148 to 149 °C |
| c1ccc(COc2ccc(CCCCn3ccnc3)cc2)cc1 | 97 to 98 °C |
| Cc1nc(N2CCCC(CCc3ccccc3)C2=O)sc1C(=O)NCc1ccccc1 (stereo not given) | 124 to 126 °C |
| COC(=O)c1cccc2c1ccn2S(C)(=O)=O | 102 to 104 °C |
| C=C(C=O)c1ccc(Cl)cc1[N+](=O)[O-] | 87 to 88 °C |
| CCCCc1nc(Cl)c(C(=O)OC)n1Cc1ccc2oc(-c3ccccc3-c3nnn[nH]3)c(Br)c2c1 | 110 to 112 °C |
| CC(C)(C)c1cc(C2N(c3ccccc3)CCN2c2ccccc2)cc(C(C)(C)C)c1O | 144 °C |
| Cn1cc(-c2cc3cccnc3[nH]2)c2ccc(C(=O)NCCO)cc21 | 264 to 267 °C |
| CON1C=C(C)N=C(NC(=O)NS(=O)(=O)c2ccccc2C=CC(F)(F)F)N1 | 159 to 160 °C |
| O=C(NC(=O)c1c(F)cccc1Cl)Nc1ccc(C(F)(F)F)c(F)c1 | 200 °C |
| COc1ccc(C(=O)N2c3ccccc3C(N3CCSc4ccccc43)CC2C)cc1OC (stereo not given) | 113 to 114 °C |
| CCCCCCCCCCCCCCOc1ccc(C(=O)Nc2cccc(CO)c2)cc1 | 112 to 115 °C |
| CCCCOC(=O)c1c(-c2ccncc2)[nH]c(-c2ccncc2)c1C | 182 to 186 °C |
| CC(=O)Nc1cccc(C)c1C(=O)O | 189 to 190 °C |
| CNC(=O)Cc1c(-c2ccccc2)nn2cccnc12 | 211 to 213 °C |
| Cn1cc(-c2cc(-c3cnc4[nH]ccc4c3)ccn2)n(-c2ccc(C(C)(C)C#N)cc2)c1=O | 248 °C |
| Cc1cc(O)c(C2C=CN(C)CC2)c(O)c1 (stereo not given) | 241 to 243 °C |
| O=Cc1cccc(OCc2ccco2)c1 | 144 to 146 °C |
| CC(C)Cn1c(=O)[nH]c2ncc(-c3ccc(O)cc3)nc21 | 290 to 291 °C |

| SMILES | melting point |
| --- | --- |
| N#CC(C(=O)NCc1ccccc1Cl)C(=O)c1nn(-c2ccccc2)c2c1CSc1ccccc1-2 (stereo not given) | 228 to 230 °C |
| CCCNC(=O)Nc1ccc(SC)cc1C(=O)NCC1CCN(C(c2ccccc2)c2ccccc2)CC1 | 196 to 198 °C |
| C#Cc1cc(Nc2ncnc3cnc(NCc4ccc(OC)cc4)cc23)ccc1Cl | 201 to 203 °C |
| CC(=O)OCC1c2ccccc2-c2c1c1ccccc1c1ccccc21 (stereo not given) | 135 to 136 °C |
| Cc1cccc(NCC2=NCCN2C(=O)Nc2ccc(Cl)cc2)c1C | 153 to 155 °C |
| CSCC[C@H](NC(=O)[C@@H]1CCC(=O)N1)C(=O)N[C@@H](C)C(=O)N[C@H](C(=O)N[C@@H](CCCCN)C(=O)O)C(C)C | 238 to 242 °C |
| Fc1ccc(N2CCN(CCCOc3ccc(-c4nnco4)cc3)CC2)cc1 | 157 to 158 °C |
| CC(C)(C)C(=O)n1c(=O)n(CCN2CCC(=C(c3ccc(F)cc3)c3ccc(F)cc3)CC2)c(=O)c2cscc21 | 69 to 72 °C |
| CCCOc1ccc(S(=O)(=O)Cl)cc1C(=O)O | 121 to 124 °C |
| CCNC(=O)c1cc2c(c(Cl)c1O)CCN(C(=O)OC(C)(C)C)C[C@@H]2c1ccc(O)cc1 | 120 to 125 °C |
| O=C(O)c1ccc2cc(-c3cc4ccccc4o3)ccn2c1=O | > 250 °C |
| Cc1nc(N2CCN(Cc3csc4ccc(Cl)cc34)C2=O)sc1C(=O)NCc1cccnc1 | 185 to 187 °C |
| Cc1cccc2c1C(=O)C1(CC1)S2 | 128 °C |
| N#CCC(=O)Nc1ccc(-c2nncn2-c2ccc(F)cc2)cc1 | 223 to 225 °C |
| CCOC(=O)c1c(C(F)F)nc(C(F)(F)F)c(C(=O)OCC)c1Br | 37 to 43 °C |
| CCCCCCCNC(=O)Nc1c(C(=O)NC2CCN(C(c3ccccc3)c3ccccc3)CC2)cccc1N(C)C | 203 °C |
| CON(C)C(=O)Nc1ccc(OCCc2ccc(C(C)C)cc2)cc1 | 81 to 82 °C |
| O=C(O)CC1Sc2ccc([N+](=O)[O-])cc2CN(CCc2ccccc2)C1=O (stereo not given) | 210 to 214 °C |
| C[C@@H](F)c1nc(N)nc(N[C@H]2c3ccccc3C[C@@H]2C)n1 | 146 to 150 °C |
| NNC(=O)c1ccc(OC(F)(F)C(F)(F)F)cc1 | 117 to 120 °C |
| Fc1ccc2c(c1)CC(CN1CCC(c3noc4cc(F)ccc34)CC1)O2 (racemic) | 129 to 130 °C |
| COc1c(C)cc(-c2cc(-c3ccncc3)c(N3CCOCC3)s2)nc1C | 129 °C |
| CC(=O)c1cccc(C(=O)N2CCN(C(=O)c3cc(C(F)(F)F)cc(C(F)(F)F)c3)[C@H](Cc3ccc(C)c(C)c3)C2)c1 | 156 to 157 °C |
| O=c1c(Br)cn(Cc2ccccc2)cc1Cc1ccccc1 | 120 to 121 °C |
| O=C1CCCn2c(=O)[nH]c3cccc1c32 | 235 °C |

| SMILES | melting point |
| --- | --- |
| COc1nc(CC(=O)O)c([N+](=O)[O-])cc1C | 135 to 137 °C |
| Cn1c(-c2cnn(-c3c(Cl)cc(C(F)(F)F)cc3Cl)n2)nc(C#N)c1C#N | 154 to 156 °C |
| N=C(NCc1ccco1)NN=Cc1c(Cl)cccc1Cl | 134 to 136 °C |
| OC(c1cccc(Oc2ccccc2)n1)C(F)(F)F (stereo not given) | 51.5 to 53.5 °C |
| COc1ccc(NC(=O)c2ccc(OC)c3oc4ccc(NC(C)=O)cc4c23)cc1 | 285 °C |
| O=C(N[C@@H](CS)C(=O)O)C(Sc1nc2cc(Cl)ccc2s1)c1ccccc1 (stereo not given in full) | 155 to 158 °C |
| CC(C)(C)c1cc(CCc2ccccc2NC(=O)NC2CCN(Cc3ccc(F)cc3)CC2)cc(C(C)(C)C)c1O | 174 to 175 °C |
| Cc1cc(CNC(=O)c2sc(N3C[C@@H](C)N(Cc4ccc(F)cc4)C3=O)nc2C)[nH]n1 | 215 to 216 °C |
| CCOc1nc2cccc(C(=O)OC)c2n1Cc1ccc(-c2ccccc2C#N)cc1 | 168 to 170 °C |
| c1ccc2c3c([nH]c2c1)CCN(CCCCc1ccncc1)C3 | 204 to 206 °C |
| CN(C)Cc1ccc(CSCCNC2=NS(=O)C(S(C)(=O)=O)=C2N)o1 (stereo not given) | 134 to 137 °C |
| CCN1CC(C(=O)N2CCOCC2)Cc2cccc(CSc3nc4ccccc4[nH]3)c21 (stereo not given) | 194 °C |
| O=C(NCc1cccc2ccccc12)NC1CCN(S(=O)(=O)c2ccccc2C(F)(F)F)C1 (stereo not given) | 117 to 119 °C |
| CCN1CCCC(NC(=O)N2CCN(c3ccccc3)CC2)C1 (stereo not given) | 100 to 103 °C |
| O=C(O)CC(NC(=O)c1ccccc1)c1ccccc1F (stereo not given) | 202 to 205 °C |
| COc1cc(O)c(C(=O)C=Cc2ccc3c(c2)OCO3)c(OC)c1 | 162 °C |
| CC1(C(=O)O)COc2ccccc2O1 (stereo not given) | 125 to 130 °C |
| N#Cc1cnn2c1NCC=C2c1ccc(Cl)c(Cl)c1 | 254 to 256 °C |
| CC(=O)OC1CSC(Oc2cccc3oc(C)nc23)C(OC(C)=O)C1OC(C)=O (stereo not given) | 149 to 151 °C |
| O=C(NC1CCN(CCNC(=O)c2n[nH]c3ccccc23)CC1)OCc1ccccc1 | 184 to 187 °C |
| COc1cc(C(=O)O)cc(OC)c1Cl | 102 to 103 °C |
| COC(=O)N[C@H](C(=O)O)C(C)(C)C | 106 to 108 °C |
| O=C(O)c1ccc(Cc2cc3cc(Cl)ccc3n2S(=O)(=O)c2ccc3c(c2)OCCO3)s1 | 196 °C |
| CC(C)(OCc1cc2cc(C(F)(F)F)ccc2n1S(=O)(=O)c1ccc2c(c1)CCO2)C(=O)O | 92 to 94 °C |
| CCCCCCCOc1cc(F)nc(N)n1 | 30 to 32 °C |

| SMILES | melting point |
| --- | --- |
| c1cc(-c2csnn2)ccn1 | 121 to 123 °C |
| O=C(/C=C/[C@@H]1[C@H]2CC(=O)O[C@H]2C[C@H]1OC(=O)c1ccccc1)COc1cccc(Cl)c1 | 101 to 102 °C |
| CCOC(=O)Nc1ccc(Br)cc1F | 72 to 73 °C |
| COc1nc(-c2ccc3c(c2)OCO3)c2cc3c(cc2n1)OCO3 | 216 to 223 °C |
| CCc1cn2nc(C)ccc2n1 | 53 to 55 °C |
| CCN1C(=O)N(c2cc(OC)cc(OC)c2)Cc2cnc(SC)nc21 | 134 to 136 °C |
| CN(CCOc1ccc(CCCC2OC(=O)NC2=O)cc1)c1ccccn1 (stereo not given) | 126 to 127 °C |
| CCn1c(=O)c2[nH]c(/C=C/c3ccc(OC)c(C)c3OC)nc2n(CC)c1=O | > 275 °C |
| CC(=O)N(O)Cc1ccccc1Nc1cccc(C)c1C | 93 to 98 °C |
| O=C1CCN(C2c3ccccc3COc3ccc(Br)cc32)CC1 (stereo not given) | 196 to 200 °C |
| CC(=O)OCC(=O)NCc1cccc(-c2csc(N=C(N)NC(=O)COC(C)=O)n2)n1 | 148 to 151 °C |
| COc1ccc2cc(-c3csc(-c4ccccc4)n3)ccc2c1 | 191 to 193 °C |
| Cc1cc(C)c2c(c1C)OCC2c1ccc(Br)cc1 (stereo not given) | 72 to 73 °C |
| O=c1[nH]c2ncc(-c3ccc(-c4nnc[nH]4)cc3)nc2n1CC1CCOCC1 | 342 to 345 °C |
| CCOC(=O)C1=C(COCC2=CC(=O)N=N2)NC(C)=C(C(=O)OC)C1c1ccccc1Cl (stereo not given) | 207 °C |
| N#Cc1c2cccccc-2nc1NCCC(c1ccccc1)c1ccccc1 | 178 to 180 °C |
| CCCCCCCC(=O)N1CCc2nnc(NN=C(C)C)cc2C1 | 118 to 121 °C |
| CCOC(=O)Nc1ccc2c3c(n(CCCN(C)C)c2c1)CCCCCC3 | 119 to 123 °C |
| CON(C)C(=O)c1ccc(C(F)(F)F)cc1O | 69 to 70 °C |
| O=C1c2ccccc2CN1c1ccccc1CCN1CCN(c2nsc3ccccc23)CC1 | 208 °C |
| Cc1cc(-n2ccc(CCc3ccccc3)cc2=O)sc1C(=O)NCc1ccccc1 | 145 to 146 °C |
| CC(=O)C1CCC2C3CCC4CC(O)CCC4(C)C3C(O)CC12C (stereo not given) | 152 to 154 °C |
| OC(CCc1cccc(Br)c1)c1cnc2sc3c(n12)CCCCC3 (stereo not given) | 137 to 141 °C |
| CC(C)(OCc1cc(-c2ccc(Cl)cc2)no1)C(=O)O | 130 to 134 °C |
| CC(C)(CO)NS(=O)(=O)c1cncc(Br)c1 | 112 °C |

— a melting point compilation (Tetko et al.; mined from patent text by program, amines drawn as free bases though some values may be those of a salt)
